The source of these data is ChEMBL document CHEMBL1201862, “PubChem BioAssay data set” (2004).

SMILES strings stand for the structures.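 How tested: cells in 96-well plates exposed to compound for 48 hours at five concentrations. GI50 is the concentration that inhibits growth by half.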 The source made the active and inactive calls. No stated cut-off is given here; in the data, active = GI50 up to about 1.1 µM and inactive = higher. A value given as a limit tells only on which side of the number the result lay.

Among the test systems are 786-0; A498; CCRF-CEM; DU-145; HCT-15; Hs-578T; IGROV-1; K562; KM12; MDA-MB-231; MDA-MB-435; NCI/ADR-RES; OVCAR-5; PC-3; RPMI-8226; SF-295; SK-MEL-2; SK-OV-3; U-251; UO-31.
Common to all, as to assay: NCI anticancer screen, dose series, 48 h

With `O=[N+]([O-])/C(C(Cl)=C(Cl)Cl)=C(/Sc1ccccc1)N1CCCCC1`, the GI50 was 31.8 µM (inactive) in the test with 786-0; > 61.9 µM (inactive) with A498; 4.74 µM (inactive) in the test on CCRF-CEM; > 53.2 µM (inactive) in the test with DU-145; more than 100 µM in the test on HCT-15; 67 µM (inactive) with Hs-578T. Besides, the GI50 with IGROV-1 is 16.5 µM (inactive); in the test with K562 it was 23.9 µM (inactive); with KM12, > 100 µM (inactive); with MDA-MB-231, > 61.5 µM (inactive); in the test with MDA-MB-435 it was > 36.7 µM (inactive); in the test with NCI/ADR-RES it was > 100 µM (inactive). The GI50 in the test on OVCAR-5 was > 100 µM (inactive); in the test on PC-3, > 75.9 µM (inactive); in the test on RPMI-8226, > 100 µM (inactive); with SF-295, 43.1 µM (inactive); in the test with SK-MEL-2, 2.44 µM (inactive); with SK-OV-3, 34.1 µM (inactive). Besides, the GI50 in the test on U-251 was > 100 µM (inactive); in the test with UO-31, > 61.5 µM (inactive).

In the case of `CC(=O)c1sc2c(c1OC(=O)c1ccc(Cl)cc1)c(=O)n(-c1ccccc1)c(=S)n2-c1ccccc1`, the GI50 in the test on 786-0 was 3.52 µM (inactive); in the test with A498, 1.08 µM (active); in the test on CCRF-CEM it was 1.06 µM (active); in the test with DU-145, 25.9 µM (inactive); with HCT-15 it was 9.18 µM; in the test on Hs-578T, 2.08 µM (inactive). Also, the GI50 is 8.89 µM (inactive) with IGROV-1; 9.04 µM (inactive) with K562; 10.9 µM (inactive) in the test on KM12; 3.91 µM (inactive) in the test on MDA-MB-231; 4.14 µM (inactive) in the test with MDA-MB-435; 4.73 µM (inactive) in the test on NCI/ADR-RES. For the same compound, the GI50 in the test with OVCAR-5 was 2.77 µM (inactive); with PC-3, 3.56 µM (inactive); with RPMI-8226, 1.21 µM (inactive); in the test with SF-295 it was 0.953 µM (active); in the test with SK-MEL-2 it was 1.27 µM (inactive); in the test with SK-OV-3, 1.21 µM (inactive). The GI50 in the test on U-251 is 2.82 µM (inactive); in the test with UO-31, 3.06 µM (inactive).

Consider `CCN1C(=O)CS/C1=N\NC(=O)CSc1nc2ccccc2c(=O)n1CC`, for which the GI50 with 786-0 was > 100 µM (inactive); in the test with A498, > 100 µM (inactive); in the test on CCRF-CEM it was > 100 µM (inactive); in the test on DU-145 it was > 100 µM (inactive); in the test with HCT-15, more than 100 µM; with Hs-578T, > 100 µM (inactive). Also, the GI50 in the test on IGROV-1, in the test with K562, in the test with KM12, in the test on MDA-MB-231, with MDA-MB-435 and in the test with NCI/ADR-RES was > 100 µM (inactive) throughout. Besides, the GI50 in the test on OVCAR-5, with PC-3, in the test on RPMI-8226, with SF-295, in the test on SK-MEL-2 and with SK-OV-3 was > 100 µM (inactive) in each case. Further, the GI50 in the test with U-251 and with UO-31 was > 100 µM (inactive) in each case.

Consider `Cc1cc(C)c(S(=O)(=O)N(CCCCCCN)OCCCON(CCCCCCN)S(=O)(=O)c2c(C)cc(C)cc2C)c(C)c1`, for which the GI50 in the test with 786-0 is 1.9 µM (inactive); in the test with A498 it was 1.7 µM (inactive); in the test on CCRF-CEM it was 2.29 µM (inactive); in the test with DU-145, 1.37 µM (inactive); in the test with HCT-15, 1.8 µM; in the test with Hs-578T, 2.11 µM (inactive). Moreover, the GI50 with IGROV-1 is 1.65 µM (inactive); in the test on K562, 3.61 µM (inactive); with KM12, 1.9 µM (inactive); in the test with MDA-MB-231, 1.8 µM (inactive); with MDA-MB-435, 2.13 µM (inactive); in the test with NCI/ADR-RES it was 13.2 µM (inactive). In addition, the GI50 with OVCAR-5 was 1.4 µM (inactive); with PC-3, 1.77 µM (inactive); in the test on RPMI-8226, 2.43 µM (inactive); in the test with SF-295 it was 1.82 µM (inactive); in the test on SK-MEL-2 it was 1.89 µM (inactive); in the test with SK-OV-3, 1.71 µM (inactive). The GI50 was 1.7 µM (inactive) with U-251 and 2.06 µM (inactive) in the test on UO-31.

Turning to `Nc1nc(N)nc(CCCCc2nc(N)nc(N)n2)n1`, the GI50 in the test on 786-0 is > 100 µM (inactive); with A498 it was > 100 µM (inactive); with CCRF-CEM, > 100 µM (inactive); in the test with DU-145 it was > 100 µM (inactive); in the test with HCT-15, more than 100 µM; in the test with Hs-578T, > 100 µM (inactive). In addition, the GI50 in the test on IGROV-1, in the test with K562, with KM12, with MDA-MB-231, in the test with MDA-MB-435 and with NCI/ADR-RES was > 100 µM (inactive) throughout. Moreover, the GI50 with OVCAR-5, in the test on PC-3, in the test with RPMI-8226, with SF-295, with SK-MEL-2 and in the test with SK-OV-3 was > 100 µM (inactive) each time. Further, the GI50 in the test with U-251 and in the test on UO-31 was > 100 µM (inactive) in each case.

Consider `CCCCC/C(=N\c1[nH]nnc1C(N)=O)OCC`, for which the GI50 in the test with 786-0 was > 100 µM (inactive); in the test with A498 it was > 100 µM (inactive); in the test with CCRF-CEM it was > 100 µM (inactive); with DU-145, > 100 µM (inactive); in the test on HCT-15 it was more than 100 µM; with Hs-578T, > 100 µM (inactive). Besides, the GI50 with IGROV-1, with K562, in the test on KM12, with MDA-MB-231, with MDA-MB-435 and in the test with NCI/ADR-RES was > 100 µM (inactive) each time. Besides, the GI50 in the test on OVCAR-5, in the test with PC-3, with RPMI-8226, in the test with SF-295, in the test with SK-MEL-2 and with SK-OV-3 was > 100 µM (inactive) each time. The GI50 in the test on U-251 and in the test on UO-31 was > 100 µM (inactive) in each case.

Regarding `CC(=O)O[C@H]1CC[C@@]2(C)C(=CC[C@H]3[C@@H]4C[C@H](N5CCCC5)[C@H](OC(C)=O)[C@@]4(C)CC[C@@H]32)C1`, the GI50 in the test on 786-0 was > 100 µM (inactive); in the test on A498, > 100 µM (inactive); in the test with CCRF-CEM, > 67.8 µM (inactive); in the test on DU-145 it was > 100 µM (inactive); in the test with HCT-15, more than 100 µM; in the test with Hs-578T, > 100 µM (inactive). The GI50 is > 100 µM (inactive) with IGROV-1; 33.1 µM (inactive) in the test on K562; > 100 µM (inactive) with KM12; > 100 µM (inactive) in the test with MDA-MB-231; 32 µM (inactive) with MDA-MB-435; > 100 µM (inactive) with NCI/ADR-RES. For the same compound, the GI50 was > 100 µM (inactive) with OVCAR-5; > 100 µM (inactive) with PC-3; > 60.1 µM (inactive) with RPMI-8226; > 100 µM (inactive) with SF-295; > 100 µM (inactive) in the test with SK-MEL-2; > 100 µM (inactive) in the test with SK-OV-3. In addition, the GI50 with U-251 and with UO-31 was > 100 µM (inactive) in each case.

With `c1ccc(-c2cc3[nH]c4ccccc4[nH]c-3cc(-c3ccccc3)nn2)cc1`, the GI50 is 29.2 µM (inactive) in the test on 786-0; 22.8 µM (inactive) with A498; 49.3 µM (inactive) in the test with CCRF-CEM; 52.7 µM (inactive) in the test with DU-145; 87.7 µM in the test with HCT-15; 66.4 µM (inactive) in the test on Hs-578T. Moreover, the GI50 was 32.1 µM (inactive) with IGROV-1; > 100 µM (inactive) in the test with K562; 46.9 µM (inactive) with KM12; 80 µM (inactive) in the test with MDA-MB-231; 64.3 µM (inactive) with MDA-MB-435; > 100 µM (inactive) in the test with NCI/ADR-RES. In addition, the GI50 in the test with OVCAR-5 is > 100 µM (inactive); in the test on PC-3 it was 55.1 µM (inactive); with RPMI-8226 it was 88.1 µM (inactive); with SF-295, 24.4 µM (inactive); with SK-MEL-2, > 100 µM (inactive); with SK-OV-3, 17.7 µM (inactive). Also, the GI50 was 55.6 µM (inactive) with U-251 and 21.3 µM (inactive) in the test on UO-31.

For the compound `CC1=CC(C)C(C)N(CCNS(=O)(=O)c2ccc(C)cc2)c2ccccc21` (stereo not given), the GI50 is 14.2 µM (inactive) in the test with 786-0; 14.6 µM (inactive) in the test with A498; 13 µM (inactive) in the test on CCRF-CEM; 11.1 µM (inactive) in the test on DU-145; 18.2 µM in the test with HCT-15; 12.9 µM (inactive) in the test on Hs-578T. Besides, the GI50 in the test on IGROV-1 was 17 µM (inactive); with K562 it was 14.7 µM (inactive); in the test on KM12 it was 19.1 µM (inactive); with MDA-MB-231 it was 13.8 µM (inactive); in the test with MDA-MB-435, 13.5 µM (inactive); in the test on NCI/ADR-RES it was 15.2 µM (inactive). In addition, the GI50 with OVCAR-5 is 18.7 µM (inactive); with PC-3, 12.5 µM (inactive); in the test on RPMI-8226, 12.2 µM (inactive); in the test on SF-295, 13.8 µM (inactive); with SK-MEL-2, 12 µM (inactive); with SK-OV-3, 29.6 µM (inactive). The GI50 in the test on U-251 and with UO-31 was 16.5 µM (inactive) each time.

Consider `CCCC[C@@H](C)/C=C1\CN2CCC[C@H]2[C@@](C)(OCc2ccccc2)[C@@H]1O`, for which the GI50 was > 47.4 µM (inactive) with 786-0; > 47.8 µM (inactive) in the test with A498; > 50 µM (inactive) in the test with CCRF-CEM; > 14.4 µM (inactive) with DU-145; more than 50 µM with HCT-15; > 50 µM (inactive) with Hs-578T. Moreover, the GI50 in the test on IGROV-1 was > 30.6 µM (inactive); in the test with K562, > 29.9 µM (inactive); in the test on KM12, > 13.8 µM (inactive); in the test on MDA-MB-231, > 50 µM (inactive); in the test with MDA-MB-435, > 50 µM (inactive); in the test with NCI/ADR-RES it was > 50 µM (inactive). Also, the GI50 in the test on OVCAR-5 is > 50 µM (inactive); in the test with PC-3 it was > 50 µM (inactive); with RPMI-8226 it was > 15.5 µM (inactive); in the test on SF-295 it was > 50 µM (inactive); in the test with SK-MEL-2, > 50 µM (inactive); in the test on SK-OV-3 it was > 50 µM (inactive). Further, the figures for the GI50 with U-251 and in the test with UO-31 were > 34.4 µM (inactive) and > 13.2 µM (inactive), respectively.
